Experimental data published in patent publication US20210268075A1, “PHARMACEUTICAL COMPOSITION AND METHOD OF TREATMENT USING SERRATIOPEPTIDASE, MANNOSE OR ITS DERIVATIVE, AND OPTIONALLY ANTINFECTION AGENTS” (priority 2020, published 2021).

System: E. Coli ATCC 8739
Assay: In vitro suppression of bacterial growth from a biofilm on a plastic thread (transmittance of medium at 590 nm)
Type: cell-based
Conditions: 7 hours with Solution F/P, higher transmittance = less bacterial growth
Protocol: 1 ml of Stock E. Coli ATCC 8739 (Culture Count 10×10^8 CFU/ml) was diluted to 10 ml with buffered peptone water with NaCl. The 1 ml of resulting culture (10×10^7 CFU/ml) was diluted to 10 ml with buffered peptone water with NaCl to make E. Coli Culture (10×10^6 CFU/ml)
On first day 6 PM, Five (5) sterile test tubes were added with 50 ml of sterile Soybean Casein Digest Medium. These medium were inoculated with 1 ml of E. Coli culture (10×10^6 CFU/ml @ 6 PM. A thin plastic thread (0.1 mm OD) of the same length were suspended from the middle of all 5 test tubes and keep in overnight (17 hours) at 30° C.-35° C. • 2. On second day 11 AM, another Five (5) sterile test tubes were added with 50 ml of sterile Soybean Casein Digest Medium and 500 mg of Glucose. • a. 1 ml of Solution F (D-mannose solution) was added to test tube 1. • b. 1 ml of Solution P (Serrapeptidase solution) was added to test tube 2. • c. 1 ml of Solution F (D-Mannose solution) and 1 ml of Solution P (Serrapeptidase solution) was added to test tube 3.
The thin plastic thread was transferred from old test tube to new test tube on second day 11 AM. All 5 test tubes were kept at 30° C.-35° C. for 7 hours. • 3. On second day 6 PM, another Five (5) sterile test tubes were added with 50 ml of Sterile Soybean Casein Digest Medium. Transfer the thin plastic thread from old test tube to new test tube on second day at 6 PM. […]

SMILES | transmittance of test tube medium at 590 nm (Procedure 1: thin plastic thread (0.1 mm OD), overnight in fresh medium, then 1 ml Solution A^dil for 7 hours at 30-35° C.) | transmittance of test tube medium at 590 nm (Procedure 2: thick plastic thread (0.5 mm OD), then 1 ml Solution A overnight (17 hours) at 30-35° C.)
O=C1CN(/N=C/c2ccc([N+](=O)[O-])o2)C(=O)N1 [A^dil (Diluted Antibiotic), Nitrofurantoin Anhydrous] | 8.4 | 
O=C1CN(/N=C/c2ccc([N+](=O)[O-])o2)C(=O)N1 [A (Antibiotic), Nitrofurantoin Anhydrous] |  | 6.9
